Results taken from patent US10947196B2, “Beta adrenergic agonist and methods of using the same” (CURASEN THERAPEUTICS, INC., priority 2019, dated 2021).
Like-named read-outs stand apart in the source and are kept apart here.

Molecular target: hERG channel (Homo sapiens (Human), UniProt Q12809)
Assay: hERG manual patch clamp
Type: cell-based
Method: Cell lines and cell culture. HEK 293 cell line stably expressing hERG channel (Cat #K1236) was purchased from Invitrogen. The cells are cultured in 85% DMEM, 10% dialyzed FBS, 0.1 mM NEAA, 25 mM HEPES, 100 U/mL Penicillin-Streptomycin and 5 μg/mL Blasticidin and 400 μg/mL Geneticin. Cells were split using TrypLE™ Express about three times a week, and maintained between ˜40% to […] confluence. Before the assay, the cells were transferred onto the coverslips at 5×10^5 cells/per 6 cm cell culture dish and induced with doxycycline at 1 μg/mL for 48 hours.
Solution preparations. Extracellular solution (in mM): 132 NaCl, 4 KCl, 3 CaCl2, 0.5 MgCl2, 11.1 glucose, and 10 HEPES (pH adjusted to 7.35 with NaOH) Intracellular solution (in mM): 140 KCl, 2 MgCl2, 10 EGTA, 10 HEPES and 5 MgATP (pH adjusted to 7.35 with KOH). […]
Experimental procedure. […] The holding potential was set to −90 mV for 500 ms and the current was recorded at 50 kHz and filtered at 10 kHz. […]
The hERG current was elicited by depolarizing at +30 mV for 4.8 seconds and then the voltage was taken back to −50 mV for 5.2 seconds to remove the inactivation and observe the deactivating tail current. […] The current was recorded for 120 seconds to assess the current stability. […]
Data that met the above criteria for hERG current quality were further analyzed. Percent hERG current inhibition was calculated using the following equation. […]

Sequence of hERG channel (Q12809 whole entry): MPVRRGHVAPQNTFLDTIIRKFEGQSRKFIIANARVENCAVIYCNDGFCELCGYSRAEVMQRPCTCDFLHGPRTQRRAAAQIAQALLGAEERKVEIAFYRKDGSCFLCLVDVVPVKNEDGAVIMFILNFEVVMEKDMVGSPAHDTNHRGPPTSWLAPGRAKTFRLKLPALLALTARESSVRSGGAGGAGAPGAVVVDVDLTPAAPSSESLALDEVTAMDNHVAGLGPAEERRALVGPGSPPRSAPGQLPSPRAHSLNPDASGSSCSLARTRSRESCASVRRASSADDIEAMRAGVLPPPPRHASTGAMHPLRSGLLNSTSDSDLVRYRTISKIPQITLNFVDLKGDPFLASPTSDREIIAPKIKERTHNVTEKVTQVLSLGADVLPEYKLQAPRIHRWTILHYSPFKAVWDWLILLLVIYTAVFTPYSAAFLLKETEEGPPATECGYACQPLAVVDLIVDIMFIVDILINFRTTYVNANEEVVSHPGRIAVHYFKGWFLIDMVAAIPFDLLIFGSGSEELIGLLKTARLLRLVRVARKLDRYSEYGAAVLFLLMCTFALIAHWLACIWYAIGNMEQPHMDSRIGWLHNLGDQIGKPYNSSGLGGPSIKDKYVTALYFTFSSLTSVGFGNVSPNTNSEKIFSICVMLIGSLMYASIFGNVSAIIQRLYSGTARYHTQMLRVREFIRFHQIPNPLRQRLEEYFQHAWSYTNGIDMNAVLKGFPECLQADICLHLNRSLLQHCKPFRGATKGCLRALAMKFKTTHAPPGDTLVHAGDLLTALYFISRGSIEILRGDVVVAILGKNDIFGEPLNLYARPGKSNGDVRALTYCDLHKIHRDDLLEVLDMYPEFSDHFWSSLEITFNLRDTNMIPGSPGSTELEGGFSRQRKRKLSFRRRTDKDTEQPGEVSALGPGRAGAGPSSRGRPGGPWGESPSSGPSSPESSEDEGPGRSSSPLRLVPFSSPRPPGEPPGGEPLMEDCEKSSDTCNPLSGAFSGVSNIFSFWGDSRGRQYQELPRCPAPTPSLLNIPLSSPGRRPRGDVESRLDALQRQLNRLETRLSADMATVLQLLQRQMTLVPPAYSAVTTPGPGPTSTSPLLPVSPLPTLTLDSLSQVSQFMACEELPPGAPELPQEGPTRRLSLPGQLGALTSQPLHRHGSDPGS

Row | SMILES | IC50 [µM] | IC50 (manual patch clamp, HEK 293 cells, read-out: hERG IC50) [µM]
1 | CC(C)(C)NC[C@H](O)c1cccc(C(F)(F)F)n1 [Compound 03-3] | > 30 | 
2 | CC(C)(C)NC[C@H](O)c1cccc(C#N)n1 [Compound 03-5, (S)-6-(2-(tert-butylamino)-1-hydroxyethyl)picolinonitrile] |  | > 30
